Data reported in patent US11325982B2, “Biparatopic and multiparatopic antibodies with common light chain and method of use” (XUANZHU BIOPHARMACEUTICAL CO., LTD., priority 2017, dated 2022).

System: NCI-N87 cells
Assay: Inhibition of proliferation of NCI-N87 cells (CCK-8)
Assay type: cell-based
Details: 72 hours, FIG. 14
Procedure: The growth curve of NCI-N87 was initially determined by plating cells at various densities in 96-well tissue culture plates. Cells were gown in RPMI-1640 medium supplemented with 10% fetal bovine serum (FBS).
24 hours later, 10 μl of antibody construct diluted to various concentrations with the medium were added to the cell culture. After the cells were cultured for additional 72 hours, the cell proliferation rates were determined by adding 10 μl of CCK-8 reagent (Sigma). After 3 hour of incubation without light, the plates were read at OD450 nm. The wells without addition of antibody were set as 100% cell viability and Docetaxel was used as a positive control for cytotoxicity. The data were then fitted into 4-parameter sigmoidal curve to generate IC50. The samples were done in triplicate.

Substance	growth inhibition	growth inhibition effect compared with other antibodies
T51: Biparatopic Fab-Ig: Bip_mAb_HC11 (VH_Pert_T30A; VH_Tra_N54T/D98S) with Tra_LC_N30S_S56Y; Fc M428L	inhibited growth	had greater effect than pertuzumab (mAb T1) or trastuzumab (mAb T22)
T52: Biparatopic Fab-Ig: Bip_mAb_HC12 (VH_Pert_T30A/G56A; VH_Tra_N54T/D98S) with Tra_LC_N30S_S56Y	inhibited growth	had greater effect than pertuzumab (mAb T1) or trastuzumab (mAb T22)
T54: Biparatopic knob/hole heterodimer: HC14 (pert T30A) and HC15 (Tra N54T/D98S) with Tra_LC_N30S_S56Y	inhibited growth	had greater effect than pertuzumab (mAb T1) or trastuzumab (mAb T22)
pertuzumab [T1, reference compound]	minimal effect	somewhat greater effect
